Measured values: ChEMBL document CHEMBL1201862, “PubChem BioAssay data set” (2004)
The source made the active and inactive calls.

What was measured:
[1] = inhibitors of intracellular T. cruzi replication, confirmation, NIH3T3 host cells, beta-gal luminescence (AID 2044); format: functional, cell-based;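 further: intracellular parasites grown in NIH/3T3 mouse fibroblasts as host cells; luminescent beta-galactosidase reporter signal from transgenic T. cruzi replicating inside host cells; inhibitors lower the luminescence signal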
[2] = cytotoxicity toward NIH3T3 fibroblasts, dose response, counter-screen, cell-based, ATP luminescence, mouse fibroblasts (AID 2010); format: functional;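 further: cells exposed to compound for about 90 hours before reading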
[3] = biological target: Low molecular weight phosphotyrosine protein phosphatase (Homo sapiens, UniProt P24666); format: functional; conditions: read-out: IC50_Mean;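 further: Dose-response confirmation assay measuring inhibition of LMPTP enzyme activity by fluorescence intensity read-out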
Sequence of Low molecular weight phosphotyrosine protein phosphatase (P24666 whole entry): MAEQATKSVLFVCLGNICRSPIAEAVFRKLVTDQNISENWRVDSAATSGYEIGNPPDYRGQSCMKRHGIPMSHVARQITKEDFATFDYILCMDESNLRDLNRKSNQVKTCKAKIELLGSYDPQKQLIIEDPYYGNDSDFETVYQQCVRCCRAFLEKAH

[4] = biological target: Peroxisome proliferator-activated receptor gamma/Nuclear receptor coactivator 1 (Homo sapiens, UniProt P37231); assay: (§1) TR-FRET dose response biochemical High Throughput Screening assay for agonists of the steroid receptor coactivator 1 (SRC-1) recruitment by the peroxisome proliferator-activated receptor gamma (PPAR gamma): non-selective agonists. [Related pubchem assays (depositor defined):AID1300, AID1808, AID504735, AID631]; format: protein assay
[5] = biological target: Peroxisome proliferator-activated receptor gamma/Nuclear receptor coactivator 3 (Homo sapiens, UniProt P37231); assay: as §1, with “3 (SRC-3)” for “1 (SRC-1)”, “assays: 1301 (Confirmation screen.), 1048 (Primary screen.)]” for “assays (depositor defined):AID1300, AID1808, AID504735, AID631]”; format: functional
Sequence of Peroxisome proliferator-activated receptor gamma/Nuclear receptor coactivator 3 (P37231 whole entry): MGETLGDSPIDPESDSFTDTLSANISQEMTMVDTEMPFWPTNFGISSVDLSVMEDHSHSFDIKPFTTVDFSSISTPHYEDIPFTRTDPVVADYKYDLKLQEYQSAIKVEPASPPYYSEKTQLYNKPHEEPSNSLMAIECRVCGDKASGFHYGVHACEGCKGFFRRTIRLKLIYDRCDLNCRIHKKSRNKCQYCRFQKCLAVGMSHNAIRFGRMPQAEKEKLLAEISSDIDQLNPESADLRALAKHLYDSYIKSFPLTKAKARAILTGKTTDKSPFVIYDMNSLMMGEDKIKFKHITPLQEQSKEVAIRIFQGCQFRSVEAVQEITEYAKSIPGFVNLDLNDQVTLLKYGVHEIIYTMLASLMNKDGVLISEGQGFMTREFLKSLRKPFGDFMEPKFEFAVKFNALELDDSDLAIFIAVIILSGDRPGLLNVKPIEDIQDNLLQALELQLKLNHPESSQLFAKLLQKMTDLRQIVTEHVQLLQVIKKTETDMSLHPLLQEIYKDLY
Sequence of Peroxisome proliferator-activated receptor gamma/Nuclear receptor coactivator 3 (Q9Y6Q9 whole entry, further chain): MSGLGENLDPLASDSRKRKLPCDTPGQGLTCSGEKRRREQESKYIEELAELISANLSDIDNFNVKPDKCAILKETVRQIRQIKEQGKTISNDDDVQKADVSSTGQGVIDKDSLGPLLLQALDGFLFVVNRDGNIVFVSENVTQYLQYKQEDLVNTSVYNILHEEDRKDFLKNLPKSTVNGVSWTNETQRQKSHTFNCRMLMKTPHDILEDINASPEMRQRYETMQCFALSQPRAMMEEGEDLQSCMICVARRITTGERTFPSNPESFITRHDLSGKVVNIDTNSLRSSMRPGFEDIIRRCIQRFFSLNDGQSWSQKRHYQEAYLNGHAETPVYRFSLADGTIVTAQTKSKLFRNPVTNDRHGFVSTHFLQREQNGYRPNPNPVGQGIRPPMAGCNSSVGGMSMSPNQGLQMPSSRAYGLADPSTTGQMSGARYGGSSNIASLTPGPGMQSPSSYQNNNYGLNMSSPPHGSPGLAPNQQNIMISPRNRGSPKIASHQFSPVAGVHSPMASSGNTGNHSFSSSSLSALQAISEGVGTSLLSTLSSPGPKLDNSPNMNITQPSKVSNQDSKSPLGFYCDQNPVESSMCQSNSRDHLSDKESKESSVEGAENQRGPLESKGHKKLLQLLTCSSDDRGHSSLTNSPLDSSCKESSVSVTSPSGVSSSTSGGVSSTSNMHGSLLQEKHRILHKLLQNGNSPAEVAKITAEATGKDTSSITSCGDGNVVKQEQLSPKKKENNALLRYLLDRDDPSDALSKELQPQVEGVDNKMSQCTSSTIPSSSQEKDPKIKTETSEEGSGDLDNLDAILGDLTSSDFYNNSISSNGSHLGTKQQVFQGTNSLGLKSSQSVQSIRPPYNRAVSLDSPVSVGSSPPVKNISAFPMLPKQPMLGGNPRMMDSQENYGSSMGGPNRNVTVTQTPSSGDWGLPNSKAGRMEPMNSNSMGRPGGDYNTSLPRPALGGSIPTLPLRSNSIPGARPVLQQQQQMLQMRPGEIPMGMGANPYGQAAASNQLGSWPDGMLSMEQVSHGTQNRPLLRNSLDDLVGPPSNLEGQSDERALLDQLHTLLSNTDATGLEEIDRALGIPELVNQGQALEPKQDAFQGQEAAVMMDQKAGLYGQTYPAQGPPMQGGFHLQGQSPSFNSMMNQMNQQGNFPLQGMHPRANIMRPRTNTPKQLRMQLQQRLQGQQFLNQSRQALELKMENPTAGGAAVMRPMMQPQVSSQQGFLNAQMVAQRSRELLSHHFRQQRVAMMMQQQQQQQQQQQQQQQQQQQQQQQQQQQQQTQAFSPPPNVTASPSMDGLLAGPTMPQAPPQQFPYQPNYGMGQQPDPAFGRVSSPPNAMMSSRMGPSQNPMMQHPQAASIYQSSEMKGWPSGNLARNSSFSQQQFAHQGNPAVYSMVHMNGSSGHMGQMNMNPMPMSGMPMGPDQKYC

[6] = biological target: Peroxisome proliferator-activated receptor gamma/Nuclear receptor coactivator 2 (Homo sapiens, UniProt P37231); assay: TR-FRET dose response biochemical High Throughput Screening assay for agonists of the steroid receptor coactivator 2 (SRC-2) recruitment by the peroxisome proliferator-activated receptor gamma (PPAR gamma): non-selective agonists. [Related pubchem assays: 1297, 1032 ]; format: functional
[7] = biological target: Mitogen-activated protein kinase 10 (Homo sapiens, UniProt P53779); assay: Dose response biochemical screening assay for inhibitors of c-Jun N-Terminal Kinase 3 (JNK3). [Related pubchem assays: 746 ]
[8] = Luminescence Cell-Based Dose Retest to Confirm Inhibitors of Cancer Stem Cells. [Related pubchem assays (depositor defined):AID2717, AID2721]; format: functional; conditions: Homo sapiens
[9] = biological target: Photoreceptor-specific nuclear receptor (Homo sapiens, UniProt Q9Y5X4); format: functional, cell-based;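 further: CHO-S cells with Gal4-NCOR and VP16-NR2E3 two-hybrid luciferase reporter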
Sequence of Photoreceptor-specific nuclear receptor (Q9Y5X4 whole entry, the tested form may be a part): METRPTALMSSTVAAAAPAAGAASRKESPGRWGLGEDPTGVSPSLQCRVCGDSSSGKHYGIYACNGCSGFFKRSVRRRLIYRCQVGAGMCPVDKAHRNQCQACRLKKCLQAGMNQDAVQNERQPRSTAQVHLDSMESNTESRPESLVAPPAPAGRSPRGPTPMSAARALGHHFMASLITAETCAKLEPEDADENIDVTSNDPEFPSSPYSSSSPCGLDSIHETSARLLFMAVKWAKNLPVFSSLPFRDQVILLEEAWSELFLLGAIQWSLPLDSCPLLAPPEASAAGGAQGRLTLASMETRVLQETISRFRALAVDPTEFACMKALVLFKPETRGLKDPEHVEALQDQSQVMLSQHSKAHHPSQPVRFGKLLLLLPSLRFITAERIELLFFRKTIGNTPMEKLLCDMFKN

[10] = biological target: Ras and Rab interactor 1/Tyrosine-protein kinase ABL1 (Homo sapiens, UniProt P00519+Q13671); format: functional;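 further: biochemical TR-FRET dose-response test measuring inhibition of binding between Rin1 and Abl proteins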
Sequence of Ras and Rab interactor 1/Tyrosine-protein kinase ABL1 (P00519 whole entry): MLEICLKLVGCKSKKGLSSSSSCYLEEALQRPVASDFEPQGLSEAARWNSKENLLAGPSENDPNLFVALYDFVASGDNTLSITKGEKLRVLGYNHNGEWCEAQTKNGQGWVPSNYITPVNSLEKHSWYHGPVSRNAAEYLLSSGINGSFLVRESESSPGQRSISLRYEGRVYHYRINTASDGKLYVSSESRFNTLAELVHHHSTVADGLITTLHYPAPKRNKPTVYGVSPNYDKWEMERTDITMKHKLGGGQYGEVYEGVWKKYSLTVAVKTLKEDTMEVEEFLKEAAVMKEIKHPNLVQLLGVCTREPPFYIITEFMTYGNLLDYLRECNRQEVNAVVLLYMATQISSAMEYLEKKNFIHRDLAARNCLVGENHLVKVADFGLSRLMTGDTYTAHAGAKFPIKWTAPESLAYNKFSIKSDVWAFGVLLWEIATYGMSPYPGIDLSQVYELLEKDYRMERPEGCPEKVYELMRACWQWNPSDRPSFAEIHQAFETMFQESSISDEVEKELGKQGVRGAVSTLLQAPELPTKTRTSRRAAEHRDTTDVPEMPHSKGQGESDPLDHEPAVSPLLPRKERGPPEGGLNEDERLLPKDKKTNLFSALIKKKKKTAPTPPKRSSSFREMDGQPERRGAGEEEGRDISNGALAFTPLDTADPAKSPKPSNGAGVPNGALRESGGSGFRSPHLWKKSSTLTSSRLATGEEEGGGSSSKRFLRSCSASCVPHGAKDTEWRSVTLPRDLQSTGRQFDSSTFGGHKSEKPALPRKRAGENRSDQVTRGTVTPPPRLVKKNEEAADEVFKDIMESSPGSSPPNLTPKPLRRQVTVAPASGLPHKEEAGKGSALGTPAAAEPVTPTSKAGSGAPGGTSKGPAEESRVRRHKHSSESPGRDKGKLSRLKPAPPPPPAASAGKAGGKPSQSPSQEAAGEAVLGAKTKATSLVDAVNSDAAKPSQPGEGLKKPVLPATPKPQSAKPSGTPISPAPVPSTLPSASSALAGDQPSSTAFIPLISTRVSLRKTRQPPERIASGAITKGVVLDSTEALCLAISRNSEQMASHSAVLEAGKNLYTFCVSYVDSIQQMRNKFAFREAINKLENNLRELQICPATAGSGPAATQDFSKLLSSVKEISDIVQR
Sequence of Ras and Rab interactor 1/Tyrosine-protein kinase ABL1 (Q13671 whole entry): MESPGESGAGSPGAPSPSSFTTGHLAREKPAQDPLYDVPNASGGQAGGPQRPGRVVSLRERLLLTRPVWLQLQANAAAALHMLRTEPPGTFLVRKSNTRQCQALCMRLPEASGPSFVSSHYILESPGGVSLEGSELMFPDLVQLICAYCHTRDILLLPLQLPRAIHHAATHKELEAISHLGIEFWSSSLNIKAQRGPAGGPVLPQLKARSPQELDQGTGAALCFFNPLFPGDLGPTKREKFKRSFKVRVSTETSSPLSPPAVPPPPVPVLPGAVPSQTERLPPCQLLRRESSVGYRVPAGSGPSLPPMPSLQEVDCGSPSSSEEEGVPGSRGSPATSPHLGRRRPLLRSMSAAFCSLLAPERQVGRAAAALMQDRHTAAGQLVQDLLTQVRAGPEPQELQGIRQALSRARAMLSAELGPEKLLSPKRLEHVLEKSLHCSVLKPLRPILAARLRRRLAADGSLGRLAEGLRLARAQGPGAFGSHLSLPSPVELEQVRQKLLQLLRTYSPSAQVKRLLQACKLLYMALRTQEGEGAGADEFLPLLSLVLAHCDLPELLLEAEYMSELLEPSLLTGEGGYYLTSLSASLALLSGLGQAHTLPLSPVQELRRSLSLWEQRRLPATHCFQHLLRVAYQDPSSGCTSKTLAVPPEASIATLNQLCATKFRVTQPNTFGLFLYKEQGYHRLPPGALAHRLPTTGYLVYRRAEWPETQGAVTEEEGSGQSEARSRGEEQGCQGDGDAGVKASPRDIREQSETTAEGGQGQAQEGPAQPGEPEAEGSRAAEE

[11] = biological target: ADP-ribosylation factor GTPase-activating protein 1 (Rattus norvegicus, UniProt Q62848); assay: Fluorescence polarization-based biochemical high throughput dose response screening assay to identify inhibitors of ADP-ribosylation factor GTPase activating protein 1 (ARFGAP1).; format: functional
Sequence of ADP-ribosylation factor GTPase-activating protein 1 (Q62848 whole entry): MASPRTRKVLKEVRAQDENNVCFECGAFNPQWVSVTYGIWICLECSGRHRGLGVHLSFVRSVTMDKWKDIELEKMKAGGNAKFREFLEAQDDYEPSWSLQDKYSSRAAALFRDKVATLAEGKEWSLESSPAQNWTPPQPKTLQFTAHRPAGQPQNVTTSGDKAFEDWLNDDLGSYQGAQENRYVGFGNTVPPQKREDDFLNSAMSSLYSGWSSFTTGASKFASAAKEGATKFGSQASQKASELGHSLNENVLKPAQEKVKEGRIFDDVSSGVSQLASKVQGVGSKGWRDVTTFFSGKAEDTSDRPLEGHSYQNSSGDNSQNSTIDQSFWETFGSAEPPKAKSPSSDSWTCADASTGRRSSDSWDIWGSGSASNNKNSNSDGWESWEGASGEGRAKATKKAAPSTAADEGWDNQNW

CHO-K1 = assay: (§2) Counterscreen for antagonists of the orexin 1 receptor (OX1R; HCRTR1): Homogeneous time resolved fluorescence (HTRF)-based cell-based dose response assay to identify antagonists of the parental CHO-K1 cell line. [Related pubchem assays (depositor defined):AID434989, AID435008, AID463079, AID485270, AID492963, AID492964, AID492965, AID493232, AID504699, AID504701]; format: functional; conditions: Cricetulus griseus
[12] = as §2, with “Fluorescence-based” for “Homogeneous time resolved fluorescence (HTRF)-based”, “cell-based high throughput” for “cell-based”, “CHO” for “CHO-K1”; format: functional
[13] = biological target: T1, Orexin/Hypocretin receptor type 1 (Homo sapiens, UniProt O43613); assay: Homogeneous Time Resolved Fluorescence (HTRF)-based cell-based high throughput dose response assay for antagonists of the orexin 1 receptor (OX1R; HCRTR1). [Related pubchem assays (depositor defined):AID434989, AID435008, AID463079, AID485270, AID492963, AID492964, AID492965, AID493232, AID504717, AID504718]; format: functional
T1 sequence (O43613 whole entry): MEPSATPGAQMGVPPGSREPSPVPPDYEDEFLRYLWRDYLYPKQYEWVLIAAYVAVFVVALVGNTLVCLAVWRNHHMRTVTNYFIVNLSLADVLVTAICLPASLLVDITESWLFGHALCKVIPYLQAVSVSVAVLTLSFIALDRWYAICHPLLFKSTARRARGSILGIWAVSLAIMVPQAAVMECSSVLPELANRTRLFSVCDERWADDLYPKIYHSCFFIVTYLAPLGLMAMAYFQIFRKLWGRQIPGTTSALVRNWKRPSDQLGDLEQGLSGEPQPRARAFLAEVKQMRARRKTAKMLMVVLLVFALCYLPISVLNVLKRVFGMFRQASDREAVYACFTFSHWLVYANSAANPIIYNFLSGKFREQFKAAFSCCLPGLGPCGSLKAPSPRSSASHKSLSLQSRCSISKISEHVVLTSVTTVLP

[14] = biological target: T1, Orexin/Hypocretin receptor type 1; assay: Fluorescence-based cell-based high throughput dose response assay for antagonists of the orexin 1 receptor (OX1R; HCRTR1). [Related pubchem assays (depositor defined):AID434989, AID435008, AID463079, AID485270, AID492963, AID492964, AID492965, AID493232, AID504717, AID504718]; format: functional
Orexin receptor type 2 [15] = biological target: T2, Orexin receptor type 2 (Homo sapiens, UniProt O43614); assay: Counterscreen assay for antagonists of the orexin 1 receptor (OX1R; HCRTR1): Fluorescence-based cell-based dose response assay for antagonists of the orexin 2 receptor (OX2R; HCRTR2), run by assay provider.; format: functional
T2 sequence (O43614 whole entry): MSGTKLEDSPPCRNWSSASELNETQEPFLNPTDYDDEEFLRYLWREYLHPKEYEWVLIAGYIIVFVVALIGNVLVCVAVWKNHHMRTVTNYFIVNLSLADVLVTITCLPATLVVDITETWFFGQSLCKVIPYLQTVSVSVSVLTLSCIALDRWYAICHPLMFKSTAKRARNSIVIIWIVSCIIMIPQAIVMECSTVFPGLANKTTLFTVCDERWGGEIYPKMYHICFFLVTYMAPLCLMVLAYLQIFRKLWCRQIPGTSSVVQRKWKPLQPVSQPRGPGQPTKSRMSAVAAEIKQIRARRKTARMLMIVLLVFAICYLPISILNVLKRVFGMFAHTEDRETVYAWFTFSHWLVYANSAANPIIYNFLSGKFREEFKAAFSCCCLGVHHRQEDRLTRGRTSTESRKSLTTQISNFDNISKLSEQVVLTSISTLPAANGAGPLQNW

Orexin receptor type 2 [16] = biological target: T2, Orexin receptor type 2; assay: Counterscreen assay for antagonists of the orexin 1 receptor (OX1R; HCRTR1): Homogeneous Time Resolved Fluorescence (HTRF)-based cell-based dose response assay for antagonists of the orexin 2 receptor (OX2R; HCRTR2), run by assay provider.; format: functional
[17] = HEp-2 cell cytotoxicity, dose response, cytotoxicity control for RSV inhibitor project, HTS (AID 2410); format: functional; conditions: human respiratory syncytial virus
[18] = biological target: Nuclear receptor subfamily 5 group A member 2 (Homo sapiens, UniProt O00482); format: functional, cell-based;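 further: HEK293T cells transfected with LRH-1 and a StAR promoter luciferase reporter; potency for inhibitors that lower LRH-1 driven reporter light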
Steroidogenic factor 1 = Steroidogenic factor 1 (Homo sapiens, UniProt Q13285); assay: Counterscreen for inverse agonists of the liver receptor homolog-1 (LRH-1; NR5A2): Luminescence-based cell-based high throughput dose response assay to identify inverse agonists of the Steroidogenic Factor 1 Nuclear Receptor (SF1; NR5A1).; format: functional
[19] = StAR promoter reporter inhibition counter-screen, dose response, counter-screen for LRH-1 inverse agonist project, cell-based, luminescence, luciferase reporter (AID 651969); format: functional
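Wherever AC50 is given: cells exposed to compound for roughly 70 hours or longer before luminescence read.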

O=C(N/N=C/c1ccc(Br)s1)c1ccc([N+](=O)[O-])cc1
EC50 [1]: 3.76 µM (active) | EC50 [2]: 8.96 µM (active) | IC50 [3]: 9.73 µM (active)

Cc1csc2nc(O)c(C(=O)NCc3ccc4c(c3)OCO4)c(=O)n12
IC50 [3]: 80 µM (inactive)

Cc1ccnc(NC(=O)CSc2cc(=O)n(C)c3ccccc23)c1
EC50 [4]: > 79.4 µM (inactive) | EC50 [5]: > 79.4 µM (not active) | EC50 [6]: > 79.4 µM (not active) | IC50 [7]: > 93.1 µM (not active) | AC50 [8]: 1.03 µM (active) | IC50 [9]: 0.664 µM (active)

CN(Cc1cnccn1)C(=O)C1CCC(=O)N(CCc2ccccc2)C1 (stereo not given)
IC50 [10]: 17.5 µM (inactive)

NC(=O)c1ccc(NC(=O)COC(=O)/C=C/c2cn(-c3ccccc3)nc2-c2cccnc2)cc1
IC50 [11]: 57.4 µM (inactive)

O=C(Nc1ccccc1)[C@@H]1CC=C[C@@H]2CCN(Cc3ccc(Cl)c(Cl)c3)C(=O)[C@@H]21
IC50 (CHO-K1): > 66.2 µM (inactive) | IC50 [12]: > 49.7 µM (inactive) | IC50 [13]: 0.484 µM (active) | IC50 [14]: 4.28 µM (active) | IC50 (Orexin receptor type 2 [15]): > 88.8 µM (inactive) | IC50 (Orexin receptor type 2 [16]): > 50 µM (inactive)

CNC(=O)NC(=O)C(C)OC(=O)c1c2c(nc3ccccc13)/C(=C/c1cccs1)CC2 (stereo not given)
CC50 [17]: > 50 µM (active) | IC50 (CHO-K1): > 66.2 µM (inactive) | AC50 [8]: 2.41 µM (active) | IC50 [12]: > 49.7 µM (inactive) | IC50 [13]: 4.12 µM (active) | IC50 [14]: 5.01 µM (active) | IC50 (Orexin receptor type 2 [15]): 8.7 µM (active) | IC50 (Orexin receptor type 2 [16]): > 50 µM (inactive)

COc1ccc(NC(=O)CSc2nc(O)c3c(C)cc(C)nc3n2)cc1
IC50 [18]: 1.37 µM (active) | IC50 (Steroidogenic factor 1): 1.3 µM (active) | IC50 [19]: 23.7 µM (inactive)

CCOc1ccc2oc(C(=O)OCC(=O)N3CCCC(C)C3)c(C)c2c1 (stereo not given)
IC50 [11]: 69.8 µM (inactive)
